Measured values published in patent publication US20230257396A1, “MACROCYCLES AND THEIR USE” (BLOSSOMHILL THERAPEUTICS, INC., priority 2020, published 2023).

Tests used:
Assay in all cases: KINOMEscan kinase binding assay (Eurofins/DiscoveRx), % Ctrl
Conditions in all cases: 1 μM
kinases [1] = biological target: T1, kinases (Homo sapiens, UniProt P16234)
T1 construct: purchased Eurofins/DiscoveRx; host or cells: E. coli BL21-derived host (T7 phage display) for most kinases; HEK-293 for the rest
Outline: (§1)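 Competition binding: DNA- or phage-tagged kinases (T7 phage in E. coli BL21, or HEK-293-expressed) with immobilized biotinylated ligand beads and test compound, 1 h at room temperature. Bead-bound kinase eluted and quantified by qPCR; % Ctrl = (compound − positive control)/(negative control − positive control) ×100 at a single compound concentration.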

kinases [2] = biological target: T2, kinases (Homo sapiens, UniProt P09619)
T2 construct: purchased Eurofins/DiscoveRx; host or cells: E. coli BL21-derived host (T7 phage display) for most kinases; HEK-293 for the rest
Outline: as §1

kinases [3] = biological target: T3, kinases (Homo sapiens, UniProt P00519)
T3 construct: purchased Eurofins/DiscoveRx; host or cells: E. coli BL21-derived host (T7 phage display) for most kinases; HEK-293 for the rest
Outline: as §1

kinases [4] = biological target: T4, kinases (Homo sapiens, UniProt P00533, L858R)
T4 construct: purchased Eurofins/DiscoveRx; host or cells: E. coli BL21-derived host (T7 phage display) for most kinases; HEK-293 for the rest
Outline: as §1

kinases [5] = biological target: T5, kinases (Homo sapiens, UniProt P10721, V559D)
T5 construct: purchased Eurofins/DiscoveRx; host or cells: E. coli BL21-derived host (T7 phage display) for most kinases; HEK-293 for the rest
Outline: as §1

kinases [6] = biological target: T6, kinases (Homo sapiens, UniProt P10721, D816V)
T6 construct: purchased Eurofins/DiscoveRx; host or cells: E. coli BL21-derived host (T7 phage display) for most kinases; HEK-293 for the rest
Outline: as §1

kinases [7] = biological target: T7, kinases (Homo sapiens, UniProt P00533, G719C)
T7 construct: purchased Eurofins/DiscoveRx; host or cells: E. coli BL21-derived host (T7 phage display) for most kinases; HEK-293 for the rest
Outline: as §1

kinases [8] = biological target: T8, kinases (Homo sapiens, UniProt P00533, DEL752-759)
T8 construct: purchased Eurofins/DiscoveRx; host or cells: E. coli BL21-derived host (T7 phage display) for most kinases; HEK-293 for the rest
Outline: as §1

kinases [9] = biological target: T9, kinases (Homo sapiens, UniProt P10721)
T9 construct: purchased Eurofins/DiscoveRx; host or cells: E. coli BL21-derived host (T7 phage display) for most kinases; HEK-293 for the rest
Outline: as §1

kinases [10] = biological target: T10, kinases (Homo sapiens, UniProt P00519, F317I)
T10 construct: purchased Eurofins/DiscoveRx; host or cells: E. coli BL21-derived host (T7 phage display) for most kinases; HEK-293 for the rest
Outline: as §1

kinases [11] = biological target: T11, kinases (Homo sapiens, UniProt P35916)
T11 construct: purchased Eurofins/DiscoveRx; host or cells: E. coli BL21-derived host (T7 phage display) for most kinases; HEK-293 for the rest
Outline: as §1

kinases [12] = biological target: T12, kinases (Homo sapiens, UniProt P17948)
T12 construct: purchased Eurofins/DiscoveRx; host or cells: E. coli BL21-derived host (T7 phage display) for most kinases; HEK-293 for the rest
Outline: as §1

kinases [13] = biological target: T13, kinases (Homo sapiens, UniProt P36888, D835H)
T13 construct: purchased Eurofins/DiscoveRx; host or cells: E. coli BL21-derived host (T7 phage display) for most kinases; HEK-293 for the rest
T13 sequence (P36888 27-993 D835H): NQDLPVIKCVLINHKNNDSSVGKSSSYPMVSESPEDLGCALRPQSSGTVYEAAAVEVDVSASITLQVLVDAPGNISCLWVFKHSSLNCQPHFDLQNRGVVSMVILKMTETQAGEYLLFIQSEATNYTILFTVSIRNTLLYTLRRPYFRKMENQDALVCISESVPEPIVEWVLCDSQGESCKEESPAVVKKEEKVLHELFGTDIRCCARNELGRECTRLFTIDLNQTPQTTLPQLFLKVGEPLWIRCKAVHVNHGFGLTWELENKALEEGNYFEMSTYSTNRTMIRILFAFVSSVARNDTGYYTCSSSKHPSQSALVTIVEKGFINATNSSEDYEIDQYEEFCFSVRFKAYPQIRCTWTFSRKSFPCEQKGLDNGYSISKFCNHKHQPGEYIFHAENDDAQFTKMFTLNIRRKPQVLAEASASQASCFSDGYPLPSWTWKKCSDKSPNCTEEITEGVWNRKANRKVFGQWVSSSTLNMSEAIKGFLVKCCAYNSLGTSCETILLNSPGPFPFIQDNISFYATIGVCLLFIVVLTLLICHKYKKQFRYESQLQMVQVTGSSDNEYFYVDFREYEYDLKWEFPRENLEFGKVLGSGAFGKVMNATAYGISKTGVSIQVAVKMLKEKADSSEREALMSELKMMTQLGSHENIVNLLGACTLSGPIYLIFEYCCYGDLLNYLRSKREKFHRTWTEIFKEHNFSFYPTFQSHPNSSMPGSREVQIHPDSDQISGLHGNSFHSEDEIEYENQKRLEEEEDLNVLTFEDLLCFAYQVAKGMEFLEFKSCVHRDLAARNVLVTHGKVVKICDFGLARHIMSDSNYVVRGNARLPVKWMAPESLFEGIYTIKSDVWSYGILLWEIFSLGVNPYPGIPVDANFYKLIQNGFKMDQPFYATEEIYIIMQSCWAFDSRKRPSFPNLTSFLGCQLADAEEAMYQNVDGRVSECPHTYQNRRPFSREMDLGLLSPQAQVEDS
Outline: as §1

[14] = target ABL1(F317I)-nonphosphorylated
[15] = target ABL1(F317I)-phosphorylated

T5 sequence (P10721 26-976 V559D): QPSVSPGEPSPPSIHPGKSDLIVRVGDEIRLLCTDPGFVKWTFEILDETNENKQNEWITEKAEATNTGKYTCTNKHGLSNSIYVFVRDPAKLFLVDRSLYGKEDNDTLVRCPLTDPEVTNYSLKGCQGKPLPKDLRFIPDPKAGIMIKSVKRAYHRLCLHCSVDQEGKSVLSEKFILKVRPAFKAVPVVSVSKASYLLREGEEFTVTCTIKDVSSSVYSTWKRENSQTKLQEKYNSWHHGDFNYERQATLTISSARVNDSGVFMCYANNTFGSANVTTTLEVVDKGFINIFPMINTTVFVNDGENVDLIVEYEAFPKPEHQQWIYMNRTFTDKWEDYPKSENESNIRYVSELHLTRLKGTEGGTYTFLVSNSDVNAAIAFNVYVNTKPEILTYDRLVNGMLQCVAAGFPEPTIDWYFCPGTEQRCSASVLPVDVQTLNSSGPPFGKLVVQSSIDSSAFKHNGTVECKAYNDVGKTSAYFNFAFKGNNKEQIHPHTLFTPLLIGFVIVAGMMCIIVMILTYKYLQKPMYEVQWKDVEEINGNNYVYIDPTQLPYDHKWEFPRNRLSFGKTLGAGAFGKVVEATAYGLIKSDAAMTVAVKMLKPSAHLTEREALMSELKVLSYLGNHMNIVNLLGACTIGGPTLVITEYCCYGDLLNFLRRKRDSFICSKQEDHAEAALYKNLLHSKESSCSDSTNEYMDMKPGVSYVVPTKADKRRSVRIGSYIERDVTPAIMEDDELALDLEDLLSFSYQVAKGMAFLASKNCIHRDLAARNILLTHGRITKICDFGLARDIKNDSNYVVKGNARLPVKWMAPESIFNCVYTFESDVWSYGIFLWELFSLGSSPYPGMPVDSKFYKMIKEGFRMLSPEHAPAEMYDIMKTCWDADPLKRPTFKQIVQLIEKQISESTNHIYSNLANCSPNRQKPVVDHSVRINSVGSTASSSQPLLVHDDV
T2 sequence (P09619 33-1106): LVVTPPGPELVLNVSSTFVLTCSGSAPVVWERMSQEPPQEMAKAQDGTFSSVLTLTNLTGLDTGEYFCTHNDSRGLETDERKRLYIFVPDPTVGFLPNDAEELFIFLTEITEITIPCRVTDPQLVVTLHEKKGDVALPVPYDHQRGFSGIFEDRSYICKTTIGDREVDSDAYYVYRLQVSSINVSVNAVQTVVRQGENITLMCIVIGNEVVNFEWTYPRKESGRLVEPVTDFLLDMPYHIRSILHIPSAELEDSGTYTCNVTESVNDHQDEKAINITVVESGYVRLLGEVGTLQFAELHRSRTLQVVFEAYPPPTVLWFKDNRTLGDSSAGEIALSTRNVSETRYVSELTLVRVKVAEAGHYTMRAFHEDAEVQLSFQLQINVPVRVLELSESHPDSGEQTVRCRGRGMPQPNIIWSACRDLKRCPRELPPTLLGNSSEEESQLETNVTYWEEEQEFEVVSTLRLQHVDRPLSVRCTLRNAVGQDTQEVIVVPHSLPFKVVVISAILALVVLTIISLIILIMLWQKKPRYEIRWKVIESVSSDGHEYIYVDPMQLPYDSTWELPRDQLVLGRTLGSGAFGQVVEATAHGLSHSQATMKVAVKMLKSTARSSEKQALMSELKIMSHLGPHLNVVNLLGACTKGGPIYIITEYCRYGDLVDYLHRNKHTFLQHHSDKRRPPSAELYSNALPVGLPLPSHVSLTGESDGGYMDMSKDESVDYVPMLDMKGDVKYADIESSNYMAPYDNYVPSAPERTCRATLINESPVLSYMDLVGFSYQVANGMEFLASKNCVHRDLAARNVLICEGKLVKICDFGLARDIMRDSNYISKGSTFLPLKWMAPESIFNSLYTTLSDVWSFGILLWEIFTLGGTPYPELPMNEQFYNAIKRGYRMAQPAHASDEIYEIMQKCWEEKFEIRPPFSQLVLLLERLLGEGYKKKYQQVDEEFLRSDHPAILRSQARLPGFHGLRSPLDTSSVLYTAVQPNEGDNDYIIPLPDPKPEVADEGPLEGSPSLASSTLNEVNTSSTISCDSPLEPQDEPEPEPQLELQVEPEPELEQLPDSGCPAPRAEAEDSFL
T6 sequence (P10721 26-976 D816V): as the sequence (P10721 26-976 V559D) above, with D534V, D791V counted along it
T10 sequence (P00519 whole entry F317I): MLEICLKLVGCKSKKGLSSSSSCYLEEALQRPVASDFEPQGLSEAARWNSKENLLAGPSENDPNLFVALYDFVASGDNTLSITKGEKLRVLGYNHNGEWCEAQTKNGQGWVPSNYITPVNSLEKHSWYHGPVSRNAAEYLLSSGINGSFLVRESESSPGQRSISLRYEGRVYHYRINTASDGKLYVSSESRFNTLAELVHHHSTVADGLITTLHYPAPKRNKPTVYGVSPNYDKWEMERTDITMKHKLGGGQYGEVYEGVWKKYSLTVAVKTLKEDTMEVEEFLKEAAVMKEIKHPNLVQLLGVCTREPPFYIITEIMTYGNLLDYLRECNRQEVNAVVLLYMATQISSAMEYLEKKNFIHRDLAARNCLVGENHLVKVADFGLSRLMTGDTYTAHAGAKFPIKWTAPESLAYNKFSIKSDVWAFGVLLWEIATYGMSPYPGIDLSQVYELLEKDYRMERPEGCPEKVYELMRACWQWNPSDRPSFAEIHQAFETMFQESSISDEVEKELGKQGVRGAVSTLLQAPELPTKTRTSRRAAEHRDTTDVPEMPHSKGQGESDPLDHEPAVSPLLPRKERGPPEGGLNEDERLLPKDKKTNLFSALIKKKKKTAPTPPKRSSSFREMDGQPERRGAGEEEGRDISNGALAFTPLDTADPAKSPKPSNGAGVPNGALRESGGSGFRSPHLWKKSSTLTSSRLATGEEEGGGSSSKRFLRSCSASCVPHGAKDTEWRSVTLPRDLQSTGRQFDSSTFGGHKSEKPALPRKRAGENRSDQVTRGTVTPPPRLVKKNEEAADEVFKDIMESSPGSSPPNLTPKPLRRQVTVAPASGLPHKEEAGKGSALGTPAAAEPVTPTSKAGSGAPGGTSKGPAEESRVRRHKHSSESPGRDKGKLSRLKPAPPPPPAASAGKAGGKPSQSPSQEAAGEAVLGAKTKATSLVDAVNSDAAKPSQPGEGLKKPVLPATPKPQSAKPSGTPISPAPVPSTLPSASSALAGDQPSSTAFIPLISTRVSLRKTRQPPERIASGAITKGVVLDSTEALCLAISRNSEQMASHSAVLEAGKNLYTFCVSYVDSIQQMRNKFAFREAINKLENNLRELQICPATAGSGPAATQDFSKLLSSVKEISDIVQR
T9 sequence (P10721 26-976): as the sequence (P10721 26-976 V559D) above, with D534V counted along it
T3 sequence (P00519 whole entry): as the sequence (P00519 whole entry F317I) above, with I317F counted along it
T12 sequence (P17948 27-1338): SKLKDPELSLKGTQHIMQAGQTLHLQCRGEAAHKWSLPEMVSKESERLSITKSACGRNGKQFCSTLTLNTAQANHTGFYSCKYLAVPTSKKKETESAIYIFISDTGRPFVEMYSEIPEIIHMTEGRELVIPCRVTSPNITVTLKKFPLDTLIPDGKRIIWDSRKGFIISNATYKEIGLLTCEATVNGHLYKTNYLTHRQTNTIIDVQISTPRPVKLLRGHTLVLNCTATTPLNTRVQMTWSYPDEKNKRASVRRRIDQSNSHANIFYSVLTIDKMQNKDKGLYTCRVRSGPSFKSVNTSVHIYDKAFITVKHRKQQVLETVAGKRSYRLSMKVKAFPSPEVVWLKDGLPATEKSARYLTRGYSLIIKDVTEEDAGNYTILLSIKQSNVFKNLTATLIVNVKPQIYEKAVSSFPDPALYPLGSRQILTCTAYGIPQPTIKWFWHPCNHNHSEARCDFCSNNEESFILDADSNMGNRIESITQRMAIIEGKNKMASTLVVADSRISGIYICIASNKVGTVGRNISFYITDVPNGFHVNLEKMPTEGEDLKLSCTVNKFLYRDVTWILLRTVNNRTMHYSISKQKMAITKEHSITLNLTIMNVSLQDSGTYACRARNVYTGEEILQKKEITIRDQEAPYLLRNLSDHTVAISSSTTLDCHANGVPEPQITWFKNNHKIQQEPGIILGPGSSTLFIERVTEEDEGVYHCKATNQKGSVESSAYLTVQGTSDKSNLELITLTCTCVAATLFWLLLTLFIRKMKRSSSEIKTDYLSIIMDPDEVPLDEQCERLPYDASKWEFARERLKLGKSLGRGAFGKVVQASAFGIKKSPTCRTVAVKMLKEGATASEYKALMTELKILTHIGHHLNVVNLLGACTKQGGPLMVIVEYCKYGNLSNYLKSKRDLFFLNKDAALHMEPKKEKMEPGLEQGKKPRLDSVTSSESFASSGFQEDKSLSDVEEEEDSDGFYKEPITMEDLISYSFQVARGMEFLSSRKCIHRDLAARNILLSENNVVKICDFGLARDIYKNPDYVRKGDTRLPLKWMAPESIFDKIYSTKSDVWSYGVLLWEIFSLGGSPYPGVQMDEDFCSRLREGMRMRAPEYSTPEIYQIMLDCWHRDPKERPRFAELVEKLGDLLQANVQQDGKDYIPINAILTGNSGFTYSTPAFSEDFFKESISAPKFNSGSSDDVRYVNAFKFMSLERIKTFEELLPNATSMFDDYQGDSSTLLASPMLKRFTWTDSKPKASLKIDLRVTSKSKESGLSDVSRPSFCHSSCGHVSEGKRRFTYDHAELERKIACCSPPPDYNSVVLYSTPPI

Row | Compound | % Ctrl, PDGFRA (kinases [1]; PDGFRA) [% Ctrl] | % Ctrl, PDGFRB (kinases [2]; PDGFRB) [% Ctrl] | % Ctrl, ABL1-nonphosphorylated (kinases [3]; ABL1-nonphosphorylated) [% Ctrl] | % Ctrl, ABL1-phosphorylated (kinases [3]; ABL1-phosphorylated) [% Ctrl] | % Ctrl, EGFR(L858R) (kinases [4]; EGFR(L858R)) [% Ctrl] | % Ctrl, KIT(V559D) (kinases [5]; KIT(V559D)) [% Ctrl] | % Ctrl, KIT(D816V) (kinases [6]; KIT(D816V)) [% Ctrl] | % Ctrl, EGFR(G719C) (kinases [7]; EGFR(G719C)) [% Ctrl] | % Ctrl, EGFR(S752-I759del) (kinases [8]; EGFR(S752-I759del)) [% Ctrl] | % Ctrl, KIT (kinases [9]; KIT) [% Ctrl] | % Ctrl, KIT-autoinhibited (kinases [9]; KIT-autoinhibited) [% Ctrl] | % Ctrl, ABL1(F317I)-nonphosphorylated (kinases [10]; ABL1(F317I)-nonphosphorylated) [% Ctrl] | % Ctrl, ABL1(F317I)-phosphorylated (kinases [10]; ABL1(F317I)-phosphorylated) [% Ctrl] | % Ctrl, FLT4 (kinases [11]; FLT4) [% Ctrl] | % Ctrl, FLT1 (kinases [12]; FLT1) [% Ctrl] | % Ctrl, FLT3(D835H) (kinases [13]; FLT3(D835H)) [% Ctrl] | % Ctrl, PDGFRA (kinases [1]; target PDGFRA) [% Ctrl] | % Ctrl, PDGFRB (kinases [2]; target PDGFRB) [% Ctrl] | % Ctrl, ABL1-nonphosphorylated (kinases [3]; target ABL1-nonphosphorylated) [% Ctrl] | % Ctrl, ABL1-phosphorylated (kinases [3]; target ABL1-phosphorylated) [% Ctrl] | also measured
1 | Cc1cc2c([nH]1)/C=C1\C(=O)Nc3ccc(cc31)-c1cnn(C)c1CNCCN(C)C2=O [Ex. 125, [3a(4)Z]-6,9,14-trimethyl-9,10,11,12,13,14-hexahydro-1,17-(ethanediylidene)pyrazolo[4,3-m]dipyrrolo[3,2-f:3′,4′-i][1,4]diazacyclopentadecine-3,8(2H,5H)-dione] | 7.7 | 0.4 | 0 | 0 | 48 | 35 | 0.5 | 8 | 73 | 42 | 95 | 0 | 0.75 | 0.11 | 11 | 0.05 |  |  |  |  | 
2 | Cc1cc2c([nH]1)/C=C1\C(=O)Nc3cnc(cc31)-c1cn[nH]c1CNCCN(C)C2=O [Ex. 55, [3a(4)Z]-6,9-dimethyl-9,10,11,12,13,14-hexahydro-17,1-(azenometheno)pyrazolo[4,3-m]dipyrrolo[3,2-f:3′,4′-i][1,4]diazacyclopentadecine-3,8(2,5H)-dione] |  |  |  |  |  |  |  |  |  |  |  |  |  |  |  |  | 50 | 10 | 10 | 6 | % Ctrl, EGFR(L858R) (kinases [4]; target EGFR(L858R)): 88 % Ctrl; % Ctrl, KIT(V559D) (kinases [5]; target KIT(V559D)): 55 % Ctrl; % Ctrl, KIT(D816V) (kinases [6]; target KIT(D816V)): 1.3 % Ctrl; % Ctrl, EGFR(G719C) (kinases [7]; target EGFR(G719C)): 68 % Ctrl; % Ctrl, EGFR(S752-I759del) (kinases [8]; target EGFR(S752-I759del)): 84 % Ctrl; % Ctrl, KIT-autoinhibited (kinases [9]; target KIT-autoinhibited): 39 % Ctrl; % Ctrl, KIT (kinases [9]; target KIT): 74 % Ctrl; % Ctrl, ABL1(F317I)-nonphosphorylated (kinases [10]; [14]): 66 % Ctrl; % Ctrl, ABL1(F317I)-phosphorylated (kinases [10]; [15]): 41 % Ctrl; % Ctrl, FLT4 (kinases [11]; target FLT4): 31 % Ctrl; % Ctrl, FLT1 (kinases [12]; target FLT1): 62 % Ctrl; % Ctrl, FLT3(D835H) (kinases [13]; target FLT3(D835H)): 2.7 % Ctrl
3 | Cc1cc2c([nH]1)/C=C1\C(=O)Nc3ccc(cc31)-c1c(noc1C)CNCCN(C)C2=O [Ex. 139, [3a(4)Z]-6,9,16-trimethyl-10,11,12,13-tetrahydro-2H-1,17-(ethanediylidene)[1,2]oxazolo[4,3-m]dipyrrolo[3,2-f:3′,4′-i][1,4]diazacyclopentadecine-3,8(5H,9H)-dione] |  |  |  |  |  |  |  |  |  |  |  |  |  |  |  |  | 74 | 73 | 17 | 9.8 | % Ctrl, EGFR(L858R) (kinases [4]; target EGFR(L858R)): 80 % Ctrl; % Ctrl, KIT(V559D) (kinases [5]; target KIT(V559D)): 91 % Ctrl; % Ctrl, KIT(D816V) (kinases [6]; target KIT(D816V)): 63 % Ctrl; % Ctrl, EGFR(G719C) (kinases [7]; target EGFR(G719C)): 82 % Ctrl; % Ctrl, EGFR(S752-I759del) (kinases [8]; target EGFR(S752-I759del)): 74 % Ctrl; % Ctrl, KIT-autoinhibited (kinases [9]; target KIT-autoinhibited): 81 % Ctrl; % Ctrl, KIT (kinases [9]; target KIT): 94 % Ctrl; % Ctrl, ABL1(F317I)-nonphosphorylated (kinases [10]; [14]): 72 % Ctrl; % Ctrl, ABL1(F317I)-phosphorylated (kinases [10]; [15]): 60 % Ctrl; % Ctrl, FLT4 (kinases [11]; target FLT4): 23 % Ctrl; % Ctrl, FLT1 (kinases [12]; target FLT1): 65 % Ctrl; % Ctrl, FLT3(D835H) (kinases [13]; target FLT3(D835H)): 14 % Ctrl
4 | Cc1cc2c([nH]1)/C=C1\C(=O)Nc3ccc(cc31)-c1ccnn1CCNCCNC2=O [Ex. 43, [19a(20)Z]-2-methyl-5,6,7,8,9,10-hexahydro-15,17-(ethanediylidene)pyrazolo[1,5-g]dipyrrolo[3,4-k:2′,3′-n][1,4,7]triazacyclohexadecine-4,19(1H,18H)-dione] | 80 | 98 | 53 | 90 | 97 | 100 | 96 | 92 | 91 | 100 | 81 | 68 | 94 | 91 | 96 | 93 |  |  |  |  | 
5 | Cc1cc2c([nH]1)/C=C1\C(=O)Nc3ccc(cc31)-c1cnn(C)c1COCCN(C)C2=O [Ex. 124, [3a(4)Z]-6,9,14-trimethyl-10,11,13,14-tetrahydro-2H-1,17-(ethanediylidene)pyrazolo[4,3-m]dipyrrolo[3,2-f:3′,4′-i][1,4]oxazacyclopentadecine-3,8(5H,9H)-dione] | 7.9 | 0.35 | 0 | 0 | 58 | 36 | 0.7 | 87 | 68 | 45 | 93 | 0 | 1.5 | 0.15 | 13 | 0.05 |  |  |  |  | 
6 | CN1CCOCCOc2cc3c(cc2Cl)NC(=O)/C3=C\c2[nH]ccc2C1=O [Ex. 143, [16a(17)Z]-19-chloro-2,5-dimethyl-6,7,9,10-tetrahydro-1H-12,14-(ethanediylidene)dipyrrolo[3,2-i:3′,4′-l][1,4,7]oxathiazacyclopentadecine-4,16(5H,15H)-dione] |  |  |  |  |  |  |  |  |  |  |  |  |  |  |  |  | 41 | 32 | 6 | 11 | % Ctrl, EGFR(L858R) (kinases [4]; target EGFR(L858R)): 86 % Ctrl; % Ctrl, KIT(V559D) (kinases [5]; target KIT(V559D)): 5.4 % Ctrl; % Ctrl, KIT(D816V) (kinases [6]; target KIT(D816V)): 34 % Ctrl; % Ctrl, EGFR(G719C) (kinases [7]; target EGFR(G719C)): 100 % Ctrl; % Ctrl, EGFR(S752-I759del) (kinases [8]; target EGFR(S752-I759del)): 86 % Ctrl; % Ctrl, KIT-autoinhibited (kinases [9]; target KIT-autoinhibited): 40 % Ctrl; % Ctrl, KIT (kinases [9]; target KIT): 9.9 % Ctrl; % Ctrl, ABL1(F317I)-nonphosphorylated (kinases [10]; [14]): 46 % Ctrl; % Ctrl, ABL1(F317I)-phosphorylated (kinases [10]; [15]): 26 % Ctrl; % Ctrl, FLT4 (kinases [11]; target FLT4): 39 % Ctrl; % Ctrl, FLT1 (kinases [12]; target FLT1): 11 % Ctrl; % Ctrl, FLT3(D835H) (kinases [13]; target FLT3(D835H)): 0.8 % Ctrl
